{"source": "patent US7666893B2", "about": "“Method for treatment of neurodegenerative disorders” (MedDEV Inc., priority 2006, dated 2010)", "format_in_all_cases": "in vivo, human", "key": {"[1]": {"test_system": "multiple sclerosis (MS) patients", "experiment": "Treatment of multiple sclerosis patients via transdermal patch", "details": "Example Three, four MS patients (2 female, 2 male), 0.2 mcg transdermal patch one day, two days off, repeated"}, "patients": {"test_system": "patients", "experiment": "Transdermal dosage range and regimen observations in patients", "description": "As will be described in the following examples, dosages in the range from about 0.1 mcg to about 0.2 mcg per day have been found generally preferable, with some variation on a patient by patient basis. […] While the mechanism behind this is not fully understood, it is believed that the effectiveness of the periodic regimen, with a resting period of about 48 hours between applications, may be due to an associated half life period (within the body of the patient) of the material or an agent that is produced by the material."}, "[2]": {"test_system": "male MS patients with erectile dysfunction", "experiment": "Sexual function in male MS patients with erectile dysfunction", "details": "Example Six", "description": "Two male MS patients, a person and a person, experienced decreased libido, decreased penile sensation, and erectile dysfunction. […] These improvements in sexual function have persisted while continuing on the treatment. […] Their ability to achieve a full erection numerous times following repeated ejaculations was restored the same day that they resumed the treatment."}, "fibromyalgia patient": {"test_system": "fibromyalgia patient", "experiment": "Treatment of fibromyalgia patient via transdermal patch", "details": "Example Five", "description": "(§1) Accordingly, material suitable for transdermal application can be prepared using a 1:1000 dilution of methyl 4-imidazolecarboxylate CAS number 17325-26-7, available from Sigma-Aldrich Corporation), combined with a pluronic lecithin organogel transdermal penetration enhancing vehicle, with hydrochloric acid being added to maintain the pH of the solution that or below 3. The resultant mixture may be dried and deposited on or applied to a suitable adhesive backing to form a transdermal patch, covered with quick release paper or other layer for protection prior to use.\nA person who has been suffering from fibromyalgia for 10 years was treated in accordance with the method of the present invention. […] The patient has reported only two incidences of increased fatigue, which lasted only one day per incidence, and these incidences were preceded by very stressful life events."}, "[3]": {"test_system": "multiple sclerosis (MS) patients", "experiment": "Treatment of multiple sclerosis patients via transdermal patch", "details": "for outcome on MS symptoms with cyclic dosing schedule: repeated", "description": "as §1\nThe following illustrative examples relate to actual practice of the invention described above in the treatment of multiple sclerosis.\nA person who had been suffering from multiple sclerosis (MS) for 51 years was treated in accordance with the method of the present invention. The patient suffered from debilitating intention tremors in their hands, poor balance, garbled speech, right foot tingling and right leg weakness, left foot tingling and weakness. Within 60 minutes of applying the first dose of 0.125 mcg methyl 4-imidazolecarboxylate via transdermal patch application, the intention tremors were alleviated, but noted some waxing and waning of other symptoms throughout the first day of treatment. […] After the third consecutive day of treatment, the patient had no symptoms of MS and they were able to remain free of symptoms for the next 36 hours without applying the treatment of the present invention. After 36 hours of not administering the treatment, they reported that their MS symptoms were returning, they then applied 0.125 mcg methyl 4-imidazolecarboxylate via transdermal patch and their MS symptoms were alleviated within 30 minutes of applying the treatment. They administered 0.125 mcg methyl 4-imidazolecarboxylate per day for next 2 consecutive days and was again able to remain free of all of the MS symptoms while wearing the transdermal patch containing the treatment dose and then remained free of symptoms for the following 2 days not administering the treatment.\nA person who has been suffering from multiple sclerosis (MS) for 21 years was treated in accordance with the method of the present invention. The patient suffered from left foot tingling and numbness, left hand tingling and numbness, left leg weakness, slurred speech, cognitive impairment, fatigue, facial/jaw pain, and heaviness in limbs. […] The patient remained free of all MS symptoms with the administration of 0.15 mcg methyl 4-imidazolecarboxylate per day for the next two consecutive days. The patient was able to remain free of MS symptoms for 36 hours following the two consecutive days of application of present invention without use of treatment. After 36 hours of not using the present invention treatment, the patient experienced left foot tingling. The patient then applied 0.15 mcg methyl 4-imidazolecarboxylate per day via transdermal patch for two consecutive days and all MS symptoms alleviated. The patient was able to remain free of all MS symptoms for the next 4 days without applying the present invention treatment. […] The following 5 days the patient remained free of all MS symptoms without administering treatment of present invention.\nEach patient has continued to maintain such improvements in their symptoms of MS by applying 0.2 mcg methyl 4-imidazolecarboxylate via transdermal patch for one day followed by two consecutive days without administering treatment and then repeating such dosing schedule."}, "[4]": {"test_system": "patient with major clinical depression", "experiment": "Treatment of patient with major clinical depression via transdermal patch", "details": "Example Seven", "description": "A person with a family history of depression and has a personal history of major clinical depression. Hospitalized in 1975 and again in 1990 with major episodes of depression including extreme suicidal ideations. Numerous medications were tried to help stabilize their condition. Since 1990 they have been taking 25 mg to 75 mg of nortriptyline to manage their depression and reports having to increase the dose to has high as 100 mg during stressful life events.\nThe patient reported suffering from the following symptoms despite taking nortriptyline:\nThey also reported very vivid dreams and they were able to recall the details of their dreams easily. […] Their constipation and dry mouth have resolved as well. They also have reported that their hair is regaining its original pigment and that their eyebrows are coming in darker and thicker resembling their younger years."}, "[5]": {"details": "0.2 mcg transdermal patch one day on, two days off"}}}
{"smiles": "COC(=O)c1cnc[nH]1", "note": "[methyl 4-imidazolecarboxylate]", "values": [{"measurement": "patient-reported change in MS symptoms (bladder function, fatigue, tingling and numbness, balance, cognition and memory, walking, sleep)", "setting": "[1]", "value": "improvement in their MS symptoms"}, {"measurement": "effectiveness of periodic regimen", "setting": "patients; approximately 0.2 mcg once every three days", "value": "especially effective for the majority of patients"}, {"measurement": "adverse effect at high dosages", "setting": "patients; transdermal, dosages above approximately 3.0 mcg per day", "value": "negative cognitive effects, in a form of mental haziness or sleepiness"}, {"measurement": "effect observed at low dosages", "setting": "patients; transdermal, dosages below about 0.01 mcg per day", "value": "negligible effect"}, {"measurement": "effect of stopping the treatment for one week", "setting": "[2]; patient, restored the same day treatment resumed", "value": "decrease in libido and inability in achieving a full erection"}, {"measurement": "time to achieve a full erection after first ejaculation", "setting": "[2]; two male MS patients, 0.2 mcg", "value": "1 to 3", "unit": "min"}, {"measurement": "patient-reported sexual function within three days of first administration", "setting": "[2]; two male MS patients, 0.2 mcg (entry two)", "value": "increased libido, full erections, increased penile sensation"}, {"measurement": "maintained outcome with cyclic dosing schedule", "setting": "fibromyalgia patient; [5]", "value": "remained free of pain, and improved mental clarity"}, {"measurement": "incidences of increased fatigue during treatment", "setting": "fibromyalgia patient; each lasting one day, preceded by very stressful life events", "value": "two"}, {"measurement": "patient-reported effect within hours of first dose", "setting": "fibromyalgia patient; person with fibromyalgia, first dose 0.2 mcg", "value": "decreased pain, decreased fatigue and improved mental clarity"}, {"measurement": "MS symptoms by the second day of treatment", "setting": "[3]; Example One, 0.125 mcg per day, transdermal patch", "value": "All MS symptoms were alleviated"}, {"measurement": "time to alleviation of returned MS symptoms after re-applying treatment", "setting": "[3]; Example One, 0.125 mcg transdermal patch after 36 hours without treatment", "value": "≤ 30", "unit": "min"}, {"measurement": "outcome on MS symptoms with cyclic dosing schedule", "setting": "[3]; Example One, 0.2 mcg one day followed by 2 consecutive days without treatment", "value": "successfully alleviated all of the MS symptoms"}, {"measurement": "time to alleviation of intention tremors after first dose", "setting": "[3]; Example One, MS patient, first dose 0.125 mcg, transdermal patch", "value": "≤ 60", "unit": "min"}, {"measurement": "time free of symptoms not administering the treatment", "setting": "[3]; Example One, after re-application and 2 further consecutive days of 0.125 mcg per day", "value": 2, "unit": "days"}, {"measurement": "time free of symptoms without applying the treatment", "setting": "[3]; Example One, after third consecutive day of 0.125 mcg treatment", "value": 36, "unit": "h"}, {"measurement": "effect on returned left foot tingling after single application", "setting": "[3]; Example Two, 0.15 mcg transdermal patch on fifth day without treatment", "value": "symptoms resolved immediately"}, {"measurement": "outcome on MS symptoms with cyclic dosing schedule", "setting": "[3]; Example Two, 0.2 mcg transdermal patch one day, 2 consecutive days without treatment", "value": "continued to remain free of all MS symptoms"}, {"measurement": "time to alleviation of all MS symptoms after first dose", "setting": "[3]; Example Two, MS patient, first dose 0.15 mcg, transdermal patch", "value": "≤ 30", "unit": "min"}, {"measurement": "time free of all MS symptoms without applying treatment", "setting": "[3]; Example Two, after second course of 0.15 mcg per day for two consecutive days", "value": 4, "unit": "days"}, {"measurement": "time free of MS symptoms without use of treatment", "setting": "[3]; Example Two, following first dose and two consecutive days of 0.15 mcg per day", "value": 36, "unit": "h"}, {"measurement": "time free of all MS symptoms without administering treatment", "setting": "[3]; Example Two, following single 0.15 mcg application", "value": 5, "unit": "days"}, {"measurement": "symptoms of depression while continuing on the treatment", "setting": "[4]; [5]", "value": "remained free of all symptoms of depression"}, {"measurement": "patient-reported effect the first day of treatment", "setting": "[4]; person, 0.2 mcg", "value": "increased energy"}]}
{"smiles": "CNCCC=C1c2ccccc2CCc2ccccc21", "note": "[nortriptyline, reference compound]", "values": [{"measurement": "patient-reported side effects", "setting": "[4]; 25 mg to 75 mg (up to 100 mg) nortriptyline since 1990", "value": "dry mouth and constipation"}]}
